Test results reported in patent US7977304B2, “FK 228 derivates as HDAC inhibitors” (University of Southampton Highfield, priority 2005, dated 2011).
pIC50: −log10 of the molar value.

How the values were obtained:
[1] = tested on: HUT78 T-cell leukaemia cells; test: CyQuant cell proliferation assay, HUT78; type: cell-based, human; settings: data not shown
[2] = tested on: HDAC responsive SV40 promoter; test: Activity Assay 2: SV40 promoter-luciferase reporter in MCF7 derived 2.1.1 cells; type: cell-based; settings: approx 16 hours
Protocol: Method. We generated a stable clone derived from MCF7 cells containing an integrated reporter construct with the SV40 immediate early promoter cloned upstream of the luciferase gene. MCF7 cells were transfected with pGL2-Basic (SV40/luciferase reporter) (Promega, UK) and pcDNA3 (expresses neomycin resistance gene) using Transfast transfection reagent. After 24 hours, cells were collected by trypsinisation and plated at low density. The following day, G418 was added to the growth medium. After ˜21 days, individual drug-resistant colonies were isolated and cultured. […] To test the effects of compound 001, 2.1.1 cells were incubated with various concentrations of compound 001 or an equivalent amount of DMSO as a control. The following day, cells were collected and luciferase activity detected using the Promega luciferase assay system and a TopCount (Perkin-Elmer).
MCF7 derived cells containing a stably integrated SV40 promoter-luciferase reporter plasmid were treated with the indicated concentrations of compound 001, or DMSO as a solvent control. Luciferase activity was determined after approx 16 hours. The data shown are derived from a single experiment performed in duplicate and are representative of multiple experiments.

MCF7 cells = test: Activity Assay 3: cell cycle distribution and survival by propidium iodide flow cytometry; type: cell-based; settings: MCF7, ~10×IC50 for growth inhibition, 24, 48 or 72 hours
Protocol: Method; MCF7 cells were incubated with indicated concentrations of compounds, or left untreated as a control, for various times, as detailed in the figure legends. Cells were collected and the proportion of cells in different phases of the cell cycle determined using propidium iodide staining and flow cytometry as previously described (Purohit et al., Int J Ca 85, 584-9 2000). The proportion of cells with <G0/G1 content (pre G0) relative to total cells was calculated first. The proportion of cells in different cell cycle phases (G0/G1, S, G2/M) was calculated as a proportion of all cells in the cell cycle (i.e., total cells minus cells with <G0/G1 content).
MCF7 cells were incubated with the indicated concentrations of compounds (each equivalent to ˜10×IC50 values for growth inhibition), or DMSO as a solvent control, for 24, 48 or 72 hours. The proportion of cells in different phases of the cell cycle was determined by flow cytometry. Data shown are mean values ±SD, derived from two separate experiments, relative to untreated cells which are normalised to 1.

[3] = tested on: HDAC (Hela Nuclear Extract); test: Activity Assay 5: in vitro HDAC fluorescent activity assay (Biomol kit); type: biochemical; settings: compounds reduced with DTT prior to analysis, 37° C., 1 hour, read-out: Inhibition of HDAC activity IC50
Protocol: We analysed the ability of compounds to inhibit in vitro HDAC activity. In vitro HDAC assays were performed using a HDAC fluorescent activity assay kit (Biomol, UK) according to the manufacturer's instructions. Compounds were reduced prior to analysis; 1 mM compound was reduced with 30 mM DTT in DMSO overnight at room temperature, protected from light. Reactions were then set up in a 96-well plate. […] Serial dilutions were set up for each compound. Reactions containing Hela extract only and assay buffer only were also set up. 25 μl diluted Fluor de Lys™ substrate (100-fold in assay buffer) was added to each reaction, which were then incubated at 37° C. for 1 hour. The reaction was stopped by addition of 50 μl Fluor de Lys™ Developer (20-fold dilution in assay buffer, plus TSA diluted 100-fold). […] Inhibition of in vitro HDAC activity was determined for mean values of duplicate samples as percentages relative to HeLa extract only reactions. IC50 values were calculated using GraphPad Prism software.

[4] = tested on: PC3 prostate cancer cells; test: Activity Assay 6: CyQuant cell growth inhibition, PC3; type: cell-based; settings: Homo sapiens, 96 h, PC3, 4 days
Protocol: (§1) We analysed the ability of compounds to inhibit the in vitro growth of human cancer cells. Cell proliferation assays were performed using the CyQuant™ assay system (Molecular Probes, Inc. USA) according to the manufacturer's instructions. MCF7 breast, A2780 ovarian and PC3 and LNCAP prostate cancer cells were plated in 96 well plates, at a density of 1000 cells for MCF7 cells or 5000 cells for M780/PC3/LNCAP cells, in 100 μl of cell culture medium per well. Compounds were added a minimum of 5 hours later, in serial dilutions in cell culture medium, in 100 μl volumes at 2× final concentration. Cell culture medium was removed after 4 (A2780, PC3 or LNCAP cells) or 6 days (MCF7 cells) by inversion of the plate onto blotting paper and cells were gently washed once with 200 μl PBS. Plates were frozen immediately for a minimum of one hour at −80° C. and then thawed. 200 μl of 1× CyQuant cell lysis buffer supplemented with dye, made according to the manufacturer's instruction, was added immediately to each well and incubated at room temperature for 3-5 minutes. Fluorescence was then measured for each well using a Cytofluor II Fluoresence Multiwell Plate Reader and CytoFluor II software with filters at 480 nm for excitation and 520 nm for emission maxima. Cell proliferation was determined for mean values of duplicate samples as percentages relative to untreated cell samples (=100%). Growth inhibition curves were used to derive IC50 values.

[5] = tested on: LNCAP prostate cancer cells; test: Activity Assay 6: CyQuant cell growth inhibition, LNCAP; type: cell-based; settings: Homo sapiens, 96 h, 4 days
Protocol: as §1

[6] = tested on: TNFα production from peripheral blood mononuclear cells (PBMCs); test: Activity Assay 7: LPS-induced TNFα secretion from PBMCs (QUANTIKINE immunoassay); type: cell-based; settings: Homo sapiens, PBMC; Concentration 200 nM
Protocol: We analysed the ability of compounds to inhibit the production of TNFα from peripheral blood mononuclear cells (PBMCs). TNF-α immunoassays were carried out using the QUANTIKINE® Human TNF-α assay kit (R&D systems, Abingdon UK) according to the manufacturer's instructions. […] Compounds were added 1 hour later in volumes of 100 μl at 6× final concentration. Five hours later lipopolysaccharide (LSP, Sigma, Poole, UK) was added in a volume of 10 μl at 60× final concentration. Plates were mixed and left overnight at 37° C. 5% C02. Plates were centrifuged and cell supernatant was transferred to a new plate. The QUANTIKINE® assay reagents and standards were prepared according to the manufacturer instructions. The QUANTIKINE® assay plate was prepared by adding 50 μl of assay diluent RD1F into each well. This was followed by 200 μl of standard or 100 μl of calibrator diluent plus 100 μl cell supernatant; this was incubated for 2 hours at room temperature (RT). The plate was washed using wash buffer 4 times. After the final wash the plate was tapped on clean paper towel to remove all residual buffer. 200 μl of TNF-α conjugate was added to each well and incubated for 1 hour at RT. The plate was then washed as before. The required amount of substrate solution was prepared by adding equal volumes of colour reagents A and B, protecting from light, 200 μl of this mix was added to each well and incubated for 20 mins at RT, protected from light. 50 μl of stop solution was added to each well in the same order as the substrate solution and the plate was read on a Biorad 680 96 well plate reader (Bio-Rad, Hemel Hempstead, UK) at 450 nm with λ correction at 570 nm. TNF-α levels were determined for mean values of duplicate samples using absorbance in nm, calibration zero values were subtracted from all results to correct for the addition of calibrator diluent in the assay.

Q: `CC(C)[C@H]1NC(=O)[C@H]2CSSCC/C=C/[C@H](CC(=O)N[C@H](C)C(=O)N2)OC(=O)CNC1=O` [Compound 9A, (E)-(1S,7R,10S,21R)-7-isopropyl-21-methyl-2-oxa-12,13-dithia-5,8,20,23-tetraaza-bicyclo[8.7.6]tricos-16-ene-3,6,9,19,22-pentaone] was tested. Which “growth of HUT78 T-cell leukaemia cells” value [1] did it give?
A: inhibited the growth of these cells

Q: What about the “activity of the HDAC responsive SV40 promoter (luciferase activity)” value [2] of the same molecule?
A: effectively reverses HDAC-mediated repression of the SV40 immediate early promoter

Q: What about the “cell cycle distribution and survival” value (MCF7 cells) of the same molecule?
A: induce a predominant G2/M phase arrest and cell death

Q: What about the pIC50 [3] of the same molecule?
A: 8.00

Q: And the pIC50 [4]?
A: 7.30

Q: And the pIC50 [5]?
A: 6.60

Q: And the inhibition at 0.2 µM [6]?
A: 69%
